This assay relates to CEM cells HIV-1 protection, formazan growth assay. Put plainly: NCI AIDS Antiviral Assay. As to conditions: for IC50: measured here: growth of uninfected CEM cells. Put shortly: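 Human CEM cells, uninfected and HIV-1-infected, exposed to five drug concentrations; growth measured by soluble formazan assay and scored as percent protection from infection, with protecting compounds retested.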

As a reminder, the EC50 is the concentration needed to bring the measured effect to its halfway point. Usually IC50 stands for the concentration that gives 50% inhibition. A higher IC50 goes with weaker potency in that assay.

Structures are written as SMILES. Values joined by “and” are separate entries in the source; they are usually repeats but may differ in a detail not shown here. Identical values can stand only once. Active and inactive are the calls of the source.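 The calls were made as follows: active = compounds giving half or more protection of infected cells from virus-caused growth loss, again on retest; inactive = the rest.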

On to `CCOC(=O)C(NC(=O)c1cccc(Cl)c1)(Nc1ccc(S(=O)(=O)Nc2cc(C)nc(C)n2)cc1)C(F)(F)F` (stereo not given), for which the EC50 was above 200 µM and the IC50 was above 200 µM.
Regarding `COC(=O)C1(Cc2ccccc2)Cc2ccccc2C1`, the EC50 was above 200 µM and the IC50 stood at 35.5 µM.
Taken in the same sequence, the figures for `CCCOC(=O)c1cc(C(=CCC[C@H]2CC[C@@]3(C)[C@@H](CC[C@@H]4[C@@H]3CC[C@]3(C)[C@@H](C(C)CCCC(C)C)CC[C@@H]43)C2)c2cc(Cl)c(O)c(C(=O)OCCC)c2)cc(Cl)c1O` (stereo not given in full) were above 151 µM and above 151 µM.
Taken in the same sequence, the figures for `CCOP(=O)(Cc1c(Cl)c(Cl)c(CP(=O)(OCC)OCC)c(Cl)c1Cl)OCC` were above 200 µM and 26.9 µM.
Taken in the same sequence, the figures for `CCOC(=O)c1cc(-c2ccccn2)c(=O)n2ccccc12` were above 200 µM and 49 µM.
Consider `CN(C)Cc1cc(N=Nc2ccccc2)ccc1O`, for which the EC50 was above 200 µM and the IC50 came out at 102 µM.
Taken in the same sequence, the figures for `COC(=O)/C=C1\C(CO[Si](C)(C)C(C)(C)C)OC(n2ccc(=O)[nH]c2=O)C1O[Si](C)(C)C(C)(C)C` (stereo not given) were above 200 µM and 8.32 µM.
`O=C(N/N=C1\C(=O)N(c2nccs2)C(=O)C(=O)C1c1nc2ccccc2s1)c1ccccc1O` (stereo not given): the outcome was inactive.
In the case of `CCOC(=O)Nc1[nH]c(C)c(Cc2ccccc2)c1C#N`, the EC50 was above 200 µM and the concentration for half-maximal inhibition (IC50) worked out at 12.3 µM.
Consider `CCSC(SCC)=C1C(=O)N(c2ccccc2)N=C1C`, for which the EC50 is above 44.7 µM and the IC50 is above 44.7 µM.
`O=CNc1ccc(S(=O)(=O)c2ccc([N+](=O)[O-])cc2)cc1`: the EC50 was above 200 µM and the IC50 was 30.2 µM.
Taken in the same sequence, the figures for `COc1cc([N+](=O)[O-])c(S(=O)(=O)O)cc1-n1nc(C(=O)Nc2ccccc2)n[n+]1-c1cc(S(=O)(=O)[O-])c([N+](=O)[O-])cc1OC` were above 372 µM and 288 µM.
With `COC(=O)CCC(=O)Nc1cccc(C(F)(F)F)c1`, the EC50 was above 129 µM and the 50% inhibitory concentration (IC50) was above 129 µM.
For the molecule `C=CCNC(=S)/N=C/c1c(O)c2ccccc2oc1=O`, the EC50 is above 64.6 µM and the half-inhibitory concentration (IC50) came to 43.7 µM.
Taken in the same sequence, the figures for `NC(Cc1ccc(O)cn1)C(=O)NC(C(=O)O)c1ccccc1` (stereo not given) were above 200 µM and above 200 µM.
Taken in the same sequence, the figures for `Clc1cnc(Oc2ccccc2)c2ccccc12` were above 200 µM and 64.6 µM.
Taken in the same sequence, the figures for `COc1ccc(NC(=O)C(C#N)=C(SC)SC)cc1` were above 200 µM and 7.94 µM.
As to `C[C@]12CCC(=O)C=C1CC[C@@H]1[C@@H]2[C@@H](O)C[C@@]2(C)[C@H]1CC[C@]2(O)C(=O)COC(=O)CCC(=O)O`, the EC50 is above 200 µM and the IC50 came out at 6.03 µM.
Taken in the same sequence, the figures for `N#Cc1c(-c2ccc(Cl)cc2)c(C#N)c(=O)n(NS(=O)(=O)c2ccccc2)c1O` were above 200 µM and above 200 µM.
Taken in the same sequence, the figures for `N#CC(C#N)=Cc1ccc(F)cc1` were above 79.4 µM and above 79.4 µM.
Taken in the same sequence, the figures for `COc1ccc2c(c1)CCCN2CCCCCCCCCCN(CCC(C)C)CCC(C)C` were above 77.6 µM and 9.55 µM.
Take `CCCCCCCCC1=C(OC)C(=O)c2ccc(Cl)nc2C1=O`: the result was inactive.
Consider `[N-]=[N+]=Nc1ccccc1Oc1ccccc1`, for which the EC50 is 58.9 µM and the IC50 was found to be 89.1 µM.
Taken in the same sequence, the figures for `Cc1cn([C@H]2CC3C(CON3C)O2)c(=O)[nH]c1=O` (stereo not given in full) were above 200 µM and above 200 µM.
Taken in the same sequence, the figures for `COc1ccc(/C=C2\C=Cc3ccccc32)cc1OC` were above 200 µM and 33.9 µM.
Taken in the same sequence, the figures for `Cc1nc(C)c(C(=O)NNC(=O)C[n+]2ccccc2)cc1C(=O)NNC(=O)C[n+]1ccccc1` were above 200 µM and above 200 µM.
With `O=C(c1cccnc1)c1cc(-c2ccccn2)c(=O)n2ccccc12`, the EC50 was above 200 µM and the IC50 is above 200 µM.
On to `O=C1NC(=O)/C(=C/c2ccc(S(=O)(=O)N/N=C\C(O)C(O)C(O)C(O)CO)cc2)N1` (stereo not given), for which the EC50 was above 200 µM; the IC50 was 126 µM and > 200 µM.
Consider `N#Cc1n[nH]n(-c2ccccc2)c1=O`, for which the EC50 was above 200 µM and the IC50 was above 200 µM.
With `CCC[CH2][Sn]([CH2]CCC)([CH2]CCC)[CH2]S(=O)(=O)O`, the result was inactive.
Regarding `CC(=O)[CH-]C(C)=O.CC(=O)[CH-]C(C)=O.CCCNCCN.[Cr+5].[O-][Cl+3]([O-])([O-])[O-]`, the EC50 is above 200 µM and the IC50 is above 200 µM.
In the case of `C/C=C/C[P+](c1ccccc1)(c1ccccc1)c1ccccc1`, the EC50 was above 200 µM; the IC50 was 1.48 µM and 1.32 µM.
In the case of `O=P1(OCC(F)(F)C(F)F)Oc2ccccc2O1`, the EC50 is above 41.7 µM and the IC50 was 3.24 µM.
In the case of `Cn1c(=O)c2c(c3cc(O)ccc31)OC(C(C)(C)O)C2` (stereo not given), the EC50 was above 617 µM and the IC50 was 112 µM.
Taken in the same sequence, the figures for `COc1cc(C(C2=C(O)c3ccccc3C(=O)C2=O)C2=C(O)c3ccccc3C(=O)C2=O)cc(OC)c1OC` were above 200 µM and 72.4 µM.
With `CCCCCC(/C=C/C1CCC(=O)C1)OCOCCOC` (stereo not given), the EC50 was above 200 µM and the IC50 is 18.2 µM.
Take `O=C(Nc1ccc(Cl)cc1)Sc1nnc2c(n1)[nH]c1ccccc12`: the EC50 was 30.2 µM and the IC50 was above 200 µM.
`O=c1c2ccccc2nc2[nH][nH]c(=S)n12`: the EC50 was above 200 µM and the half-inhibitory concentration (IC50) was 195 µM.
Regarding `CC1CCCC(C)C(Sc2ccccc2)=C1Sc1ccccc1` (stereo not given), the result was inactive.
Regarding `N/N=C(\c1nc2ccc([N+](=O)[O-])cc2[nH]c1=O)C(O)c1ccc(Cl)c(Cl)c1` (stereo not given), the EC50 is above 339 µM and the IC50 was 145 µM.
Taken in the same sequence, the figures for `CN(C)CCCn1c2c3ccccc3ccc2c2oc(=O)c3ccccc3c21` were above 33.1 µM and 1.62 µM.
With `COc1cccc2ccc3c(c12)C(=O)OC31CCc2c(C)cccc21` (stereo not given), the result was inactive.
On to `COC(=O)C12OC3CO[Si](C(C)C)(C(C)C)O[Si](C(C)C)(C(C)C)OC3C1Oc1nc(=O)ccn12` (stereo not given), for which the EC50 was above 200 µM and the 50% inhibitory concentration (IC50) worked out at 35.5 µM.
Taken in the same sequence, the figures for `COc1ccc2nc(N/N=C/c3sccc3C)cc(C)c2c1` were above 200 µM and 17.4 µM.
For the molecule `O=C(Nc1cc(Cl)ccc1Cl)C(=O)C(c1cnc2ccccc2n1)[N+](=O)[O-]` (stereo not given), the EC50 is above 89.1 µM and the IC50 came out at 38.9 µM.
Taken in the same sequence, the figures for `CCCCCCCCCCCCCCCCCC(=O)OC[C@H](COP(=O)(O)OCCNC(=O)CCC(=O)O)OC(=O)CCCCCCCCCCCCCCCCC` were above 50.1 µM and above 50.1 µM.
Taken in the same sequence, the figures for `COc1cc(C=O)c(-c2cc3c(cc2C=O)OCO3)c(OC)c1OC` were above 145 µM and 51.3 µM.
As to `CC(C)(C)SS(=O)C(C)(C)C` (stereo not given), the EC50 was above 97.7 µM and the IC50 is above 97.7 µM.
Regarding `CCOC(=O)C1=C(N)Oc2cc(O)cc(O)c2C1c1ccccc1` (stereo not given), the result was inactive.
Turning to `COC1=CC2=CCC3C(CC[C@@]4(C)C3CC[C@@H]4C(C)=O)[C@@]2(C)CC1` (stereo not given in full), the EC50 is above 200 µM and the IC50 was found to be 74.1 µM.
Taken in the same sequence, the figures for `COC(=O)c1c([N+](=O)[O-])ncn1[C@H]1OC[C@@H](OC(C)=O)[C@@H](OC(C)=O)[C@@H]1OC(C)=O` were above 200 µM and above 200 µM.
Taken in the same sequence, the figures for `O=C1O/C(=C(\Br)c2cccc3ccccc23)c2ccccc21` were above 7.76 µM and above 7.76 µM.
As to `CCOC(=O)c1c2c(nc3c1CCC/C3=C\c1ccccc1)/C(=C/c1ccccc1)CCC2`, the EC50 was above 200 µM and the IC50 was above 200 µM.
On to `O=S(=O)(O)C(O)C(F)(F)C(F)(F)C(F)(F)C(F)(F)C(O)S(=O)(=O)O` (stereo not given), for which the EC50 is above 200 µM and the 50% inhibitory concentration (IC50) was found to be 155 µM.
As for `Cn1c(-c2cccs2)cc(-c2cccs2)c1-c1ccsc1`, the EC50 is above 20 µM and the IC50 was 11.2 µM.
With `Nc1nc(Cl)cc(NCC2(O)CCC2)n1`, the EC50 was above 200 µM and the IC50 is above 200 µM.
In the case of `Cc1c(Cl)cccc1NC(=O)C(=O)c1c(O)c2ccc(O)cc2oc1=O`, the EC50 was above 95.5 µM and the IC50 was above 95.5 µM.
For `O=C(O)c1cscc1Cc1ccccc1`, the EC50 was above 200 µM and the IC50 was above 200 µM.
In the case of `O=C1c2ccccc2-c2cc(N3C(=O)C=CC3=O)ccc21`, the EC50 was above 200 µM and the concentration for half-maximal inhibition (IC50) came to 17 µM.
Taken in the same sequence, the figures for `O=C(Nc1nc(-c2ccccc2)cs1)OCC(Cl)(Cl)Cl` were above 200 µM and 4.47 µM.
Taken in the same sequence, the figures for `C=C(Br)C[N+](CC)(CC)CC` were above 200 µM and above 200 µM.
Taken in the same sequence, the figures for `NCCN(CCN)CCN` were above 151 µM and above 151 µM.
As to `NC(=O)c1ccccc1NC(=O)C(=O)Nc1n[nH]c(N)n1`, the EC50 is above 871 µM and the IC50 is above 871 µM.
As to `c1ccc(-c2cc(=[N+]3CCOCC3)c3ccccc3o2)cc1`, the outcome was inactive.
As for `O=C(CCCN1CCN(c2ccccn2)CC1)c1ccc(F)cc1`, the EC50 was above 132 µM and the IC50 amounted to 72.4 µM.
Taken in the same sequence, the figures for `Cc1cc(Cl)ccc1NC(=O)/C(=N\NC(C)(C)C)C(C#N)c1nc(-c2ccc([N+](=O)[O-])cc2)cs1` (stereo not given) were 2.63 µM and 10.2 µM.
Taken in the same sequence, the figures for `CCCCCCCCCCCCCCCCN1C(=O)/C(=C\c2ccc(O)cc2)SC1=Nc1ccccc1` were above 44.7 µM and above 44.7 µM.
Taken in the same sequence, the figures for `COc1ccc(NC(=O)CC(=O)n2nc(C)c(N=Nc3cccc(C)c3)c2C)cc1` were above 200 µM and above 200 µM.
As to `O=C1OC(=O)c2c(O)cc(O)c(=O)cc21`, the EC50 is above 331 µM and the IC50 came to 209 µM.
Taken in the same sequence, the figures for `COc1cccc(C(=O)N[C@@H]2[C@H](O)[C@@H](CO)O[C@H]2n2cnc3c(N)ncnc32)c1` were above 200 µM and above 200 µM.
Taken in the same sequence, the figures for `O=[N+]([O-])c1ccc(Cl)c(C2SCc3nc4ccccc4n32)c1` (stereo not given) were above 39.8 µM and 33.1 µM.

The values above are taken from PubChem BioAssay AID179 (DTP/NCI, 2004).
